Assay results reported in US8492441B2, “Dosage regimen of an S1P receptor agonist” (Novartis AG, priority 2008, dated 2013).
Values belong to the molecule of their own block, whether it stands above or below them.

Experiments:
healthy subjects [1] = conditions: administration of 1.25 mg; cited from earlier work
multiple sclerosis = conditions: humans; cited from earlier work
subjects [2] = assay: Example 1 dose titration study: continuous telemetry of heart rate (daily minimum heart rate, HRmin); format: in vivo, human
Procedure: (§1) Increasing doses of Compound A starting at 0.25 mg o.d. and ending at the maximal therapeutic dose of 10 mg o.d. are given to 28 subjects over 12 days as specified in Table 1 below. A placebo group and a positive control group receiving the 10 mg final therapeutic dose are also included in the study (each of 14 subjects).
On Day −1 (baseline), subjects undergo baseline assessments including 24 hour holter monitoring and telemetry assessments. Subjects remain on continuous telemetry, starting before breakfast on Day −1 and proceeding throughout the administration period up to Day 13 (24 hour after the last dose). Over this 13 day duration of continuous heart rate collection for each subject, one heart rate value is obtained every minute (‘minute unit heart rate’), representing the average heart rate value over that minute. The heart rate database for each subject contains approximately […] data points (13 days×24 hr×60 min).
The daily chronotropic effect is defined as the percent decrease in HRmin between two consecutive days. It is calculated on days 1 to 12.
(§2) Cardiac conduction intervals: arrhythmia monitoring includes the frequency and duration of sinus pauses (>2 sec and >3 sec) and atrio-ventricular blocks. Frequency and duration of atrial and ventricular ectopy and sinus rhythm are also recorded. The daily chronotropic effect is defined as the percent decrease in HRmin, (minimum heart rate) between two consecutive days. It is calculated on days 1 to 12.
The variation in daily minimum heart rate, HRmin (minimum of 24 hourly mean heart rates) over the course of the study is shown in FIG. 1.

subjects [3] = assay: Example 1 dose titration study: Holter monitoring of ectopies (SVEs, VEs) and pauses >2 secs; format: in vivo, human; conditions: for subjects with total number of SVEs 0-10 / subjects with total number of SVEs 11-20 / subjects with total number of SVEs 21-50 / subjects with total number of SVEs >50 / subjects with total number of VEs 0-5 / subjects with total number of VEs 6-10 / subjects with total number of VEs 11-30 / subjects with total number of VEs >30 / subjects with total number of pauses >2 secs: 0 / subjects with total number of pauses >2 secs: 1 / subjects with total number of pauses >2 secs: >1: any time during the 12-day treatment period
Procedure: as §1
Pharmacodynamic and safety assessments are performed up to 24 hours post last dose. Heart rhythm is assessed via 24 hr continuous holter monitoring on Day −1, Day 1, Day 11 and Day 12. For each dosing for each subject, the drug is administered as closely as practically possible to the time administered on Day −1. Safety assessments includes physical examinations, vital signs and body measurements, 12-lead ECG evaluations, standard clinical laboratory evaluations hematology, blood chemistry, urinalysis, adverse event and serious adverse event monitoring.
24-hour continuous Holter-ECG data are captured via a digital Holter monitor (12-lead, on Days […]), and transferred for interpretation and reporting. Holter monitoring starts approximately at 7:00 and the time of dose administration is regarded as the time “0 hours”. Holter “cuts” are derived from the dataset at 1 hour intervals starting from Day −1 and continuing for 24 hours or the end of the cleaned Holter monitoring dataset.
as §2

healthy subjects [4] = assay: Absolute lymphocyte count after multiple daily doses (FIG. 2); format: in vivo, human
Excerpt: Preferred medications comprise medication for patients suffering from chronic longterm diseases, such as autoimmune diseases, e.g. multiple sclerosis, Polymyositis, lupus nephritis, rheumatoid arthritis, inflammatory bowel diseases or psoriasis. In an embodiment of the invention, medications are medications for patients suffering from multiple sclerosis, for example relapse remitting multiple sclerosis (RRMS) or primary progressive multiple sclerosis (PPMS), e.g. for patients suffering from RRMS.

[5] = 10 mg daily from Day 1 (N = 14)
[6] = DT#1 titration 0.25 to 10 mg (N = 14)
[7] = DT#2 titration (Fibonacci) 0.25 to 10 mg (N = 14)

Compound: CCCCCCCCc1ccc(CCC(N)(CO)CO)cc1 [FTY720]
- decrease in heart rate (healthy subjects [1]): approximately 8 beats/min (BPM)
- efficacy in the treatment of multiple sclerosis (multiple sclerosis): has been demonstrated in humans

- subjects with total number of SVEs 0-10 (subjects [3]; [5]): 1 (7.1%) n (%)
- subjects with total number of SVEs 11-20 (subjects [3]; [5]): 2 (14.3%) n (%)
- subjects with total number of SVEs 21-50 (subjects [3]; [5]): 5 (35.7%) n (%)
- subjects with total number of SVEs >50 (subjects [3]; [5]): 6 (42.9%) n (%)
- subjects with total number of VEs 0-5 (subjects [3]; [5]): 6 (42.9%) n (%)
- subjects with total number of VEs 6-10 (subjects [3]; [5]): 4 (28.6%) n (%)
- subjects with total number of VEs 11-30 (subjects [3]; [5]): 1 (7.1%) n (%)
- subjects with total number of VEs >30 (subjects [3]; [5]): 3 (21.4%) n (%)
- subjects with total number of pauses >2 secs: 0 (subjects [3]; [5]): 10 (71.4%) n (%)
- subjects with total number of pauses >2 secs: 1 (subjects [3]; [5]): 1 (7.1%) n (%)
- subjects with total number of pauses >2 secs: >1 (subjects [3]; [5]): 3 (21.4%) n (%)
- subjects with total number of SVEs 0-10 (subjects [3]; [6]): 1 (7.1%) n (%)
- subjects with total number of SVEs 11-20 (subjects [3]; [6]): 3 (21.4%) n (%)
- subjects with total number of SVEs 21-50 (subjects [3]; [6]): 2 (14.3%) n (%)
- subjects with total number of SVEs >50 (subjects [3]; [6]): 8 (57.1%) n (%)
- subjects with total number of VEs 0-5 (subjects [3]; [6]): 3 (21.4%) n (%)
- subjects with total number of VEs 6-10 (subjects [3]; [6]): 5 (35.7%) n (%)
- subjects with total number of VEs 11-30 (subjects [3]; [6]): 4 (28.6%) n (%)
- subjects with total number of VEs >30 (subjects [3]; [6]): 2 (14.3%) n (%)
- subjects with total number of pauses >2 secs: 0 (subjects [3]; [6]): 10 (71.4%) n (%)
- subjects with total number of pauses >2 secs: 1 (subjects [3]; [6]): 1 (7.1%) n (%)
- subjects with total number of pauses >2 secs: >1 (subjects [3]; [6]): 3 (21.4%) n (%)
- subjects with total number of SVEs 0-10 (subjects [3]; [7]): 0 n (%)
- subjects with total number of SVEs 11-20 (subjects [3]; [7]): 1 (7.1%) n (%)
- subjects with total number of SVEs 21-50 (subjects [3]; [7]): 4 (28.6%) n (%)
- subjects with total number of SVEs >50 (subjects [3]; [7]): 9 (64.3%) n (%)
- subjects with total number of VEs 0-5 (subjects [3]; [7]): 3 (21.4%) n (%)
- subjects with total number of VEs 6-10 (subjects [3]; [7]): 2 (14.3%) n (%)
- subjects with total number of VEs 11-30 (subjects [3]; [7]): 5 (35.7%) n (%)
- subjects with total number of VEs >30 (subjects [3]; [7]): 4 (28.6%) n (%)
- subjects with total number of pauses >2 secs: 0 (subjects [3]; [7]): 13 (92.9%) n (%)
- subjects with total number of pauses >2 secs: 1 (subjects [3]; [7]): 0 n (%)
- subjects with total number of pauses >2 secs: >1 (subjects [3]; [7]): 1 (7.1%) n (%)
Compound: CCc1cc(/C(C)=N/OCc2ccc(C3CCCCC3)c(C(F)(F)F)c2)ccc1CN1CC(C(=O)O)C1 [Compound A, 1-{4-[1-(4-cyclohexyl-3-trifluoromethyl-benzyloxyimino)-ethyl]-2-ethyl-benzyl}-azetidine-3-carboxylic acid]
- increase in heart rate (subjects [2]; 10 mg treatment group, from Day 1 to Day 2): approximately 5 BPM
- decrease in heart rate (subjects [2]; 10 mg treatment group, from Day -1 to Day 1): approximately 8 BPM
- further increase in heart rate (subjects [2]; 10 mg treatment group, from day 2 to day 4): approximately 3 BPM
- gradual decrease in heart rate per day (subjects [2]; both titration groups (DT#1, DT#2), first seven days of the dose titration): 1-2 BPM per day
- total reduction in heart rate (subjects [2]; both titration groups (DT#1, DT#2), over the first seven days of the dose titration): 4-5 BPM
- heart rate recovery after day 7 (subjects [2]; both titration groups, over the next 2-3 days after the first seven days): the heart rate increased to approximately the placebo level
- dip in heart rate on initiation of the 10 mg dose after titration (subjects [2]; titration groups, 10 mg dose initiated on Days 8 and 9, compared to preceding days): did not result in a significant dip in heart rate
- effect of dose titration regimen on negative chronotropic effect (subjects [2]; titration regimen vs Day 1 of 10 mg dose treatment initiation): attenuates the negative chronotropic effect
- number of heart pauses greater than 2 seconds, comparison of regimens (subjects [3]; second titration regimen DT#2 (Fibonacci sequence) vs the other active treatment regimens): lower number of heart pauses greater than 2 seconds
- absolute lymphocyte count in the blood (healthy subjects [4]): reduces the absolute lymphocyte count
